Test results as given in patent publication US20260226497A1, “TRANSGENIC MAIZE EVENT MON 87427” (Monsanto Technology LLC, priority 2009, published 2026).

Test system: event MON 87427 hybrids
Type: in vivo, maize
Conditions: two successive sprays at 2.25 lb a.e./acre each
Excerpt: This illustrates that the F1 hybrid plants from event MON 87427 crosses are fully tolerant to glyphosate when used for weed control.

**Q.** With `O=C(O)CNCP(=O)(O)O` [glyphosate, N-phosphonomethylglycine] as the compound, how does the “injury or male fertility compared with NK603 hybrid” value read?
**A.** The value was “no difference was observed in injury or male fertility”.
